Among the data in patent US20220315554A1, “COMPOUNDS COMPRISING A […] LIGAND AND USE THEREOF” (priority 2019, published 2022) are IC50 values, retold here.

One experiment deals with T1, Human recombinant FAP (Homo sapiens, UniProt Q12884).
T1 sequence (Q12884 1-760): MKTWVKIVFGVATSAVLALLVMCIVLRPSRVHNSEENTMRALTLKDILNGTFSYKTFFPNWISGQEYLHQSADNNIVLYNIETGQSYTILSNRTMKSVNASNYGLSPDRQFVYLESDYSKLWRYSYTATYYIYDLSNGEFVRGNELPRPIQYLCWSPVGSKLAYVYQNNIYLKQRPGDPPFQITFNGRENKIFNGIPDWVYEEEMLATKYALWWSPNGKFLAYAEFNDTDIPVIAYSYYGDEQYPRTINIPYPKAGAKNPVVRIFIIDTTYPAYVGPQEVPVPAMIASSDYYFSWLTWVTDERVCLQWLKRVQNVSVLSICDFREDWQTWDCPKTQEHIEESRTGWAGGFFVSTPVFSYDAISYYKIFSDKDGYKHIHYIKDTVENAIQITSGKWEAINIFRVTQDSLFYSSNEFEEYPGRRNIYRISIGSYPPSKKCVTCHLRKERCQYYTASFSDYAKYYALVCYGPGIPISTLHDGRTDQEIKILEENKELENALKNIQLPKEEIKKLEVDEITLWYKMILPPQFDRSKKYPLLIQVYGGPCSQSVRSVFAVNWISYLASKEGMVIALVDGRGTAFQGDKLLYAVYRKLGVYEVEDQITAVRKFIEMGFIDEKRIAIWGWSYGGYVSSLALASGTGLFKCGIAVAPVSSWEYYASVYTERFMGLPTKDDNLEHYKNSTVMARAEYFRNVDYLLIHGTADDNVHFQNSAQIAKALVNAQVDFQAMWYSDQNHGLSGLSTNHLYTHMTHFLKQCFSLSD
The experiment can be described thus: FRET-based FAP protease activity assay. Type of experiment: biochemical. Further details: purchased R&D systems 3715-SE. To be noted: pIC50 Category (Activity), recombinant human FAP, FRET substrate, 37° C.

For experiment [1], the target named is T2, FAP-expressing human WI-38 fibroblasts (Homo sapiens, UniProt Q12884).
T2 construct: FAP-expressing human WI-38 fibroblasts (ECACC) were cultured in EMEM; host or cells: WI-38 human fibroblasts
T2 sequence (Q12884 1-760): T1 sequence (Q12884 1-760)
The experiment is described as follows: Competitive FACS binding assay. To be noted: pIC50 Category (FACS), competition with 3 nM Cy5-labeled compound, WI-38 fibroblasts, 4° C., 1 hour. As to the method:
Cells were analyzed in an Attune NxT flow cytometer. […]
For orientation: Flow cytometry measures light scatter and fluorescence of single cells or particles in a stream.

SMILES strings stand for the structures. Numbered stars: 1 amine (or outer) side, 2 acyl side, 3 side chain; on linkers, the order of the positions; unused ones are H or OH. Bridge positions count the residues as written; N and C are the ends. Square brackets hold non-standard residues; d marks the D form. Peptide text beside a SMILES is read from it. * marks the point of attachment. X3 = NC(=O)[C@H](CCCCNC(=O)CN1CCN(CC(=O)O)CCN(CC(=O)O)CCN(CC(=O)O)CC1)NC(=O)CCC(=O)NCCCOCCOCCOCCCN*; mXylylene = c1cc(C[*:1])cc(C[*:2])c1; X44 = O=C(CC1CCN([*:1])CC1)[*:2]; 4Pal = N[C@@H](Cc1ccncc1)C(=O)O; 4Amb = NCc1ccc(C(=O)O)cc1; Hexanoyl = CCCCCC(=O)*

Take `CSCC[C@H](NC(C)=O)C(=O)N[C@H]1CSCc2cccc(c2)CSC[C@@H](C(=O)N[C@@H](CC(=O)O)C(=O)N[C@@H](Cc2c[nH]cn2)C(=O)N[C@@H](Cc2ccccc2)C(N)=O)NC(=O)[C@H](Cc2ccccc2)NC(=O)[C@H](CCC(=O)O)NC(=O)[C@H]([C@@H](C)O)NC(=O)[C@@H]2CCCN2C(=O)[C@@H]2CCCN2C1=O` [3BP-3199, Ac-Met-[Cys(3MeBn)-Pro-Pro-Thr-Glu-Phe-Cys]-Asp-His-Phe-NH2] (Ac-MCPPTEFCDHF-NH2; linker 2-8 via mXylylene): the values for the IC50 (at Human recombinant FAP; in experiment [1]) were 10 to 79.4 nM and 100 to 794 nM, respectively.
Consider `CSCC[C@H](NC(C)=O)C(=O)N[C@H]1CSCc2cccc(c2)CSC[C@@H](C(=O)N[C@@H](CC(=O)O)C(=O)N[C@@H](Cc2c[nH]cn2)C(=O)N[C@@H](Cc2ccccc2)C(=O)N[C@@H](CCCNC(=N)N)C(N)=O)NC(=O)[C@H](Cc2ccccc2)NC(=O)[C@H](CCC(=O)O)NC(=O)[C@H]([C@@H](C)O)NC(=O)[C@@H]2CCCN2C(=O)[C@@H]2CCCN2C1=O` [3BP-3200, Ac-Met-[Cys(3MeBn)-Pro-Pro-Thr-Glu-Phe-Cys]-Asp-His-Phe-Arg-NH2] (Ac-MCPPTEFCDHFR-NH2; linker 2-8 via mXylylene), for which the IC50 (at Human recombinant FAP; in experiment [1]) was less than 10 nM each time.
In the case of `CSCC[C@H](NC(C)=O)C(=O)N[C@H]1CSCc2cccc(c2)CSC[C@@H](C(=O)N[C@@H](CC(=O)O)C(=O)N[C@@H](Cc2c[nH]cn2)C(=O)N[C@@H](Cc2ccccc2)C(=O)N[C@@H](CCCNC(=N)N)C(=O)N[C@H](CC(=O)O)C(N)=O)NC(=O)[C@H](Cc2ccccc2)NC(=O)[C@H](CCC(=O)O)NC(=O)[C@H]([C@@H](C)O)NC(=O)[C@@H]2CCCN2C(=O)[C@@H]2CCCN2C1=O` [3BP-3213, Ac-Met-[Cys(3MeBn)-Pro-Pro-Thr-Glu-Phe-Cys]-Asp-His-Phe-Arg-asp-NH2] (Ac-MCPPTEFCDHFR[dD]-NH2; linker 2-8 via mXylylene), the IC50 (at Human recombinant FAP; in experiment [1]) was less than 10 nM each time.
In the case of `CSCC[C@H](NC(C)=O)C(=O)N[C@H]1CSCc2cccc(c2)CSC[C@@H](C(=O)N[C@@H](CC(=O)O)C(=O)N[C@@H](Cc2c[nH]cn2)C(=O)N[C@@H](Cc2ccccc2)C(=O)N[C@@H](CCCNC(=N)N)C(=O)N[C@@H](CC(=O)O)C(N)=O)NC(=O)[C@H](Cc2ccccc2)NC(=O)[C@H](CCC(=O)O)NC(=O)[C@H]([C@@H](C)O)NC(=O)[C@@H]2CCCN2C(=O)CNC1=O` [3BP-3214, Ac-Met-[Cys(3MeBn)-Gly-Pro-Thr-Glu-Phe-Cys]-Asp-His-Phe-Arg-Asp-NH2] (Ac-MCGPTEFCDHFRD-NH2; linker 2-8 via mXylylene), the 50% inhibitory concentration (IC50) (on Human recombinant FAP; in experiment [1]) was less than 10 nM in each case.
As for `CSCC[C@H](NC(C)=O)C(=O)N[C@H]1CSCc2cccc(c2)CSC[C@@H](C(=O)N[C@@H](CC(=O)O)C(=O)N[C@@H](Cc2c[nH]cn2)C(=O)N[C@@H](Cc2ccccc2)C(=O)N[C@@H](CCCNC(=N)N)C(=O)N[C@@H](CC(=O)O)C(N)=O)NC(=O)[C@H](Cc2ccccc2)NC(=O)[C@H](CCC(=O)O)NC(=O)[C@H]([C@@H](C)O)NC(=O)[C@@H]2CCCN2C(=O)[C@@H](C)NC1=O` [3BP-3215, Ac-Met-[Cys(3MeBn)-ala-Pro-Thr-Glu-Phe-Cys]-Asp-His-Phe-Arg-Asp-NH2] (Ac-MC[dA]PTEFCDHFRD-NH2; linker 2-8 via mXylylene), the IC50 (on Human recombinant FAP; in experiment [1]) was 100 to 794 nM throughout.
Take `CCCCCC(=O)N[C@H]1CSCc2cccc(c2)CSC[C@@H](C(=O)N[C@@H](CC(=O)O)C(=O)N[C@@H](Cc2c[nH]cn2)C(=O)N[C@H](Cc2ccccc2)C(=O)N[C@@H](CCCNC(=N)N)C(=O)NCCCOCCOCCOCCCNC(=O)CCC(=O)N[C@@H](CCCCNC(=O)CN2CCN(CC(=O)O)CCN(CC(=O)O)CCN(CC(=O)O)CC2)C(N)=O)NC(=O)[C@H](Cc2ccccc2)NC(=O)[C@H](CCC(=O)O)NC(=O)[C@H]([C@@H](C)O)NC(=O)[C@@H]2CCCN2C(=O)[C@@H]2CCCN2C1=O` [3BP-3276, Hex-[Cys(3MeBn)-Pro-Pro-Thr-Glu-Phe-Cys]-Asp-His-phe-Arg-Ttds-Lys(DOTA)-NH2] (Hexanoyl-CPPTEFCDH[dF]R-X3; linker 1-7 via mXylylene): the 50% inhibitory concentration (IC50) (on Human recombinant FAP; in experiment [1]) was less than 10 nM each time.
Regarding `CCCCCC(=O)N[C@H]1CSCc2cccc(c2)CSC[C@@H](C(=O)N[C@@H](CC(=O)O)C(=O)N[C@@H](Cc2c[nH]cn2)C(=O)N[C@@H](Cc2ccncc2)C(=O)N[C@H](CCCNC(=N)N)C(=O)NCCCOCCOCCOCCCNC(=O)CCC(=O)N[C@@H](CCCCNC(=O)CN2CCN(CC(=O)O)CCN(CC(=O)O)CCN(CC(=O)O)CC2)C(N)=O)NC(=O)[C@H](Cc2ccccc2)NC(=O)[C@H](CCC(=O)O)NC(=O)[C@H]([C@@H](C)O)NC(=O)[C@@H]2CCCN2C(=O)[C@@H]2CCCN2C1=O` [3BP-3277, Hex-[Cys(3MeBn)-Pro-Pro-Thr-Glu-Phe-Cys]-Asp-His-Ppa-arg-Ttds-Lys(DOTA)-NH2] (Hexanoyl-CPPTEFCDH[4Pal][dR]-X3; linker 1-7 via mXylylene), the IC50 (on Human recombinant FAP; in experiment [1]) was less than 10 nM each time.
For the compound `CCCCCC(=O)N[C@H]1CSCc2cccc(c2)CSC[C@@H](C(=O)N[C@@H](CC(=O)O)C(=O)N[C@@H](CCCNC(=N)N)C(=O)O)NC(=O)[C@H](Cc2ccccc2)NC(=O)[C@H](CCC(=O)O)NC(=O)[C@H]([C@@H](C)O)NC(=O)[C@@H]2CCCN2C(=O)[C@@H]2CCCN2C1=O` [3BP-3299, Hex-[Cys(3MeBn)-Pro-Pro-Thr-Glu-Phe-Cys]-Asp-Arg-NH2] (Hexanoyl-CPPTEFCDR-OH; linker 1-7 via mXylylene), the IC50 (at Human recombinant FAP; in experiment [1]) was less than 10 nM each time.
Turning to `CCCCCC(=O)N[C@H]1CSCc2cccc(c2)CSC[C@@H](C(=O)N[C@@H](CC(=O)O)C(=O)N2CCC(CC(=O)N[C@@H](CCCNC(=N)N)C(N)=O)CC2)NC(=O)[C@H](Cc2ccccc2)NC(=O)[C@H](CCC(=O)O)NC(=O)[C@H]([C@@H](C)O)NC(=O)[C@@H]2CCCN2C(=O)[C@@H]2CCCN2C1=O` [3BP-3302, Hex-[Cys(3MeBn)-Pro-Pro-Thr-Glu-Phe-Cys]-Asp-Cmp-Arg-NH2] (Hexanoyl-CPPTEFCD[X44]R-NH2; linker 1-7 via mXylylene), the 50% inhibitory concentration (IC50) (on Human recombinant FAP; in experiment [1]) was less than 10 nM in each case.
For `CCCCCC(=O)N[C@H]1CSCc2cccc(c2)CSC[C@@H](C(=O)NCc2ccc(C(=O)N[C@@H](CCCNC(=N)N)C(N)=O)cc2)NC(=O)[C@H](Cc2ccccc2)NC(=O)[C@H](CCC(=O)O)NC(=O)[C@H]([C@@H](C)O)NC(=O)[C@@H]2CCCN2C(=O)[C@@H]2CCCN2C1=O` [3BP-3303, Hex-[Cys(3MeBn)-Pro-Pro-Thr-Glu-Phe-Cys]-Pamb-Arg-NH2] (Hexanoyl-CPPTEFC[4Amb]R-NH2; linker 1-7 via mXylylene), the values for the 50% inhibitory concentration (IC50) (at Human recombinant FAP; in experiment [1]) were less than 10 nM and 10 to 79.4 nM, respectively.
Turning to `CCCCCC(=O)N[C@H]1CSCc2cccc(c2)CSC[C@@H](C(N)=O)NC(=O)[C@H](Cc2ccccc2)NC(=O)[C@H](CCC(=O)O)NC(=O)[C@H]([C@@H](C)O)NC(=O)[C@@H]2CCCN2C(=O)CNC1=O` [3BP-3345, Hex-[Cys(3MeBn)-Gly-Pro-Thr-Glu-Phe-Cys]-NH2] (Hexanoyl-CGPTEFC-NH2; linker 1-7 via mXylylene), the IC50 (usually the concentration at which inhibition is half-maximal) at Human recombinant FAP lay within 10 to 79.4 nM; in experiment [1], 100 to 794 nM.
